Data published in patent publication US7285564B2, “Substituted 4-amino-1-(pyridylmethyl)piperidine and related compounds” (Theravance, Inc., priority 2002, dated 2007).

Key:
[1] = biological target: T1, hM3 muscarinic receptor subtype (Homo sapiens, UniProt P20309); assay: Radioligand binding assay, hM3 relative to hM2; settings: ratio of Ki values from radioligand displacement
T1 construct: expressed in transfected cells; membranes prepared
Description: CHO (Chinese hamster ovary) cell lines stably expressing cloned human hM1, hM2, hM3 and hM4 muscarinic receptor subtypes, respectively, were grown to near confluency in medium consisting of HAM's F-12 supplemented with 10% FBS (Fetal Bovine Serum) and 250 μg/mL Geneticin. The cells were grown in a 5% CO2, 37° C. incubator and lifted with dPBS+2 mM EDTA. Cells were collected by 5 minute centrifugation at 650×g, and cell pellets were either stored frozen at −80° C. or membranes were prepared immediately. For membrane preparation, cell pellets were resuspended in lysis buffer and homogenized with a Polytron PT-2100 tissue disrupter (Kinematica AG; 20 seconds×2 bursts). Crude membranes were centrifuged at 40,000×g for 15 minutes at 4° C. […] Protein concentration of the membrane suspension was determined by the method of Lowry, O. et al., (1951) […]: 193, 265. […]
Radioligand binding assays were performed in 96-well microtiter plates in a total assay volume of 100 μL. […] Filter plates were rinsed three times with wash buffer (10 mM HEPES) to remove unbound radioactivity. […] The plates were then counted in a PerkinElmer Topcount liquid scintillation counter (PerkinElmer Inc., Wellesley, Mass.). Binding data were analyzed by nonlinear regression analysis with the GraphPad Prism Software package (GraphPad Software, Inc., San Diego, Calif.) using the one-site competition model. […]

[2] = system: volume-induced bladder contractions; assay: In vivo rat bladder assay; settings: intravenous; anesthetized female Sprague-Dawley rats; normalized to atropine response
Description: Female Sprague-Dawley rats (Harlan, Indianapolis, Ind.) weighing 200 to 300 g were anesthetized with urethane (1.5 g/kg, s.c., Sigma, St. Louis, Mo.), with a supplement of 0.25 g/kg, s.c. urethane as needed. Urethane was administered at a concentration of 0.25 g/mL.
Rats were prepared for surgery by shaving the neck and abdomen and cleansing with ethanol wipes. First, an incision was made on the ventral surface. An intravenous catheter was placed by isolating and ligating the femoral vein. […]
Thereafter, an intravenous dose of the test compound was administered and changes in VIBCAmp were recorded for 15 minutes. Atropine (0.1 mg/kg) was then administered intravenously (1 mL/kg) as a positive control and VIBCAmp and data was recorded for an additional 15 minutes. […]
Alternatively, after the vehicle, increasing cumulative intravenous doses of the test compound were administered at 15 minute intervals (1 mL/kg) and changes in VIBCAmp were recorded for 15 minutes. […]
The average VIBCAmp during the 5-15 minute period after test compound and atropine was determined and subtracted from the average VIBCAmp during the 5-15 minute post-vehicle period to obtain the test compound or atropine-induced change in VIBCAmp. […]

T1 sequence (P20309 whole entry): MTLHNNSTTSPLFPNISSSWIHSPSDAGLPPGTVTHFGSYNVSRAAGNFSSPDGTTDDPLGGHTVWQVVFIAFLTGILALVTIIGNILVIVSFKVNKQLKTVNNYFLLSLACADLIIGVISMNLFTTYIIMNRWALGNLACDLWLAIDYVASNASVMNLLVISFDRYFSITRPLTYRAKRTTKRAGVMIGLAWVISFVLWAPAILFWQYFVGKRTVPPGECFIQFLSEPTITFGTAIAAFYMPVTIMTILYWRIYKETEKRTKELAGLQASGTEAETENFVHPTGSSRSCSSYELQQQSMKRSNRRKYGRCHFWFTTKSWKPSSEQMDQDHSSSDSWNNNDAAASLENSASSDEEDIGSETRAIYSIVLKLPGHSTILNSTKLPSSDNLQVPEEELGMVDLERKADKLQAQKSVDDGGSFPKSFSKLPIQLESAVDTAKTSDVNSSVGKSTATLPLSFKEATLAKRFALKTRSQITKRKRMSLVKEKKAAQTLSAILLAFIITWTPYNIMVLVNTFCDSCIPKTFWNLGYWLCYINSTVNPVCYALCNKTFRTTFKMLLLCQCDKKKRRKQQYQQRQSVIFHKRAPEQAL

hM3/hM2 ratio [1]: greater than 40
SMILES: COc1ccncc1CN1CCC(N(CCCCCCCN2CC[C@@H](C(C(N)=O)(c3ccccc3)c3ccccc3)C2)C(C)C)CC1 [Example 1]
ID50 (volume-induced bladder contraction amplitude) [2]: less than or equal to 0.1 mg/kg
